Assay results: PubChem BioAssay AID256 (DTP/NCI, 2004)
Values joined by “and” are separate entries in the source; they are usually repeats but may differ in a detail not shown here. Identical values can stand only once. Toxic doses and inconclusive results are not listed. Rule for the calls: active = survival T/C of 150% or more; inactive = T/C below 125% in these data.

Tested on: CD2F1 mice, L1210 leukemia ip, survival T/C
Test: NCI In Vivo Anticancer Drug Screen. Data for tumor model L1210 Leukemia (intraperitoneal) in CD2F1 (CDF1) mice
Settings: higher = longer survival
Outline: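 Antitumor effect is scored in animals hosting a serially transplanted tumor. Values compare compound-dosed animals against vehicle-only controls as a simple quotient.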

[1] = endpoint: mean survival time, dose: 100.0 mg/kg/injection, schedule: Q01DX001 (ip), vehicle: saline
[2] = endpoint: mean survival time, dose: 50.0 mg/kg/injection, schedule: Q04DX003 (ip), vehicle: saline
[3] = endpoint: mean survival time, dose: 100.0 mg/kg/injection, schedule: Q04DX003 (ip), vehicle: saline
[4] = endpoint: mean survival time, dose: 200.0 mg/kg/injection, schedule: Q04DX003 (ip), vehicle: saline
[5] = endpoint: mean survival time, dose: 400.0 mg/kg/injection, schedule: Q04DX003 (ip), vehicle: saline
[6] = endpoint: mean survival time, dose: 100.0 mg/kg/injection, schedule: Q01DX001 (ip), vehicle: saline with Tween-80
[7] = endpoint: mean survival time, dose: 200.0 mg/kg/injection, schedule: Q01DX001 (ip), vehicle: saline with Tween-80
[8] = endpoint: mean survival time, dose: 400.0 mg/kg/injection, schedule: Q01DX001 (ip), vehicle: saline with Tween-80
[9] = endpoint: mean survival time, dose: 100.0 mg/kg/injection, schedule: Q04DX002 (ip), vehicle: saline
[10] = endpoint: mean survival time, dose: 200.0 mg/kg/injection, schedule: Q04DX002 (ip), vehicle: saline
[11] = endpoint: mean survival time, dose: 400.0 mg/kg/injection, schedule: Q04DX002 (ip), vehicle: saline
[12] = endpoint: mean survival time, dose: 100.0 mg/kg/injection, schedule: Q04DX003 (ip), vehicle: saline with Tween-80
[13] = endpoint: mean survival time, dose: 200.0 mg/kg/injection, schedule: Q04DX003 (ip), vehicle: saline with Tween-80
[14] = endpoint: mean survival time, dose: 400.0 mg/kg/injection, schedule: Q04DX003 (ip), vehicle: saline with Tween-80
[15] = endpoint: mean survival time, dose: 100.0 mg/kg/injection, schedule: Q01DX009 (ip), vehicle: saline with Tween-80
[16] = endpoint: mean survival time, dose: 200.0 mg/kg/injection, schedule: Q01DX009 (ip), vehicle: saline with Tween-80
[17] = endpoint: mean survival time, dose: 400.0 mg/kg/injection, schedule: Q01DX009 (ip), vehicle: saline with Tween-80
[18] = endpoint: mean survival time, dose: 25.0 mg/kg/injection, schedule: Q01DX009 (ip), vehicle: saline
[19] = endpoint: mean survival time, dose: 50.0 mg/kg/injection, schedule: Q01DX009 (ip), vehicle: saline
[20] = endpoint: mean survival time, dose: 25.0 mg/kg/injection, schedule: Q01DX009 (ip), vehicle: saline with Tween-80
[21] = endpoint: mean survival time, dose: 50.0 mg/kg/injection, schedule: Q01DX009 (ip), vehicle: saline with Tween-80
[22] = endpoint: mean survival time, dose: 100.0 mg/kg/injection, schedule: Q01DX009 (ip), vehicle: saline

Measured: T/C

COC(=O)C([NH-])c1ccccc1.COC(=O)C([NH-])c1ccccc1.[Cl][Pt+2][Cl] (configuration not stated)
inactive: endpoint: median survival time, dose: 3.12 mg/kg/injection, schedule: Q04DX003 (ip), vehicle: saline 101 % of control | endpoint: median survival time, dose: 6.25 mg/kg/injection, schedule: Q04DX003 (ip), vehicle: saline 100 % of control | endpoint: median survival time, dose: 12.5 mg/kg/injection, schedule: Q04DX003 (ip), vehicle: saline 100 % of control | endpoint: median survival time, dose: 25.0 mg/kg/injection, schedule: Q04DX003 (ip), vehicle: saline 101 % of control | endpoint: median survival time, dose: 50.0 mg/kg/injection, schedule: Q04DX003 (ip), vehicle: saline 101 % of control | endpoint: median survival time, dose: 100.0 mg/kg/injection, schedule: Q04DX003 (ip), vehicle: saline 103 % of control

CCCC(=O)Nc1ncnc2c1[nH]c(=O)n2C1OC2COP(=O)(O)OC2C1O (configuration not stated)
inactive: endpoint: mean survival time, dose: 6.25 mg/kg/injection, schedule: Q01DX005 (ip), vehicle: water 97 % of control | endpoint: mean survival time, dose: 12.5 mg/kg/injection, schedule: Q01DX005 (ip), vehicle: water 97 % of control | endpoint: mean survival time, dose: 25.0 mg/kg/injection, schedule: Q01DX005 (ip), vehicle: water 93 % of control | endpoint: mean survival time, dose: 50.0 mg/kg/injection, schedule: Q01DX005 (ip), vehicle: water 93 % of control | endpoint: mean survival time, dose: 100.0 mg/kg/injection, schedule: Q01DX005 (ip), vehicle: water 95 % of control

CC1CCCC(C)N1c1ccc(NC(=O)c2ccc(C(=O)Nc3ccc(N4C(C)CCCC4C)cc3)cc2)cc1 (configuration not stated)
inactive: [1] 86 % of control

CC(C)NC(=O)CCCn1c(=O)c2ccccc2c(=O)n1C
inactive: endpoint: mean survival time, dose: 25.0 mg/kg/injection, schedule: Q04DX003 (ip), vehicle: saline 104 % of control | [2] 96 % of control | [3] 101 % of control | [4] 96 % of control | [5] 98 % of control

CCOc1ccc(-n2c(=O)c(N=Nc3ccccc3)c(O)n(-c3ccccc3OC)c2=S)cc1
inactive: [6] 102 % of control | [7] 89 % of control | [8] 90 % of control

NCCCN1CCN(CCCN)CC1
inactive: [9] 98 % of control | [10] 91 % of control | [11] 98 % of control

O=C1Cc2ccccc2CO1
inactive: [12] 97 % of control | [13] 94 % of control | [14] 105 % of control

O=C(O)/C=C/C(=O)NCc1ccccc1
inactive: [15] 104 % of control | [16] 94 % of control | [17] 98 % of control

O=C([O-])CC[n+]1ccn(CCC(=O)O)c1
inactive: [3] 109 % of control | [4] 103 % of control | [5] 111 % of control

CCN(CC)CC(COC)Oc1cc(C)ccc1C(C)C (configuration not stated)
inactive: endpoint: mean survival time, dose: 100.0 mg/kg/injection, schedule: Q04DX003 (ip), vehicle: Klucel (hydroxypropylcellulose) (HPC) 92 % of control | endpoint: mean survival time, dose: 200.0 mg/kg/injection, schedule: Q04DX003 (ip), vehicle: Klucel (hydroxypropylcellulose) (HPC) 93 % of control

[Cl][PtH].c1ccc([PH+](c2ccccc2)c2ccccc2)cc1.c1ccc([PH+](c2ccccc2)c2ccccc2)cc1
inactive: [6] 92 % of control | [7] 92 % of control | [8] 95 % of control

NC(=O)c1csc(C2OC(CO)CC2O)n1 (configuration not stated)
inactive: endpoint: median survival time, dose: 37.5 mg/kg/injection, schedule: Q01DX005 (ip), vehicle: water 92 % of control | endpoint: median survival time, dose: 75.0 mg/kg/injection, schedule: Q01DX005 (ip), vehicle: water 107 % of control | endpoint: median survival time, dose: 125.0 mg/kg/injection, schedule: Q01DX005 (ip), vehicle: water 104 % of control | endpoint: median survival time, dose: 150.0 mg/kg/injection, schedule: Q01DX005 (ip), vehicle: water 102 % of control | endpoint: median survival time, dose: 250.0 mg/kg/injection, schedule: Q01DX005 (ip), vehicle: water 116 % of control | endpoint: median survival time, dose: 300.0 mg/kg/injection, schedule: Q01DX005 (ip), vehicle: water 109 % of control | endpoint: median survival time, dose: 500.0 mg/kg/injection, schedule: Q01DX005 (ip), vehicle: water 121 % of control

CC(Br)C1(c2cccc([N+](=O)[O-])c2)OCCO1 (configuration not stated)
inactive: endpoint: mean survival time, dose: 12.0 mg/kg/injection, schedule: Q01DX009 (ip), vehicle: saline 96 % of control | [18] 112 % of control | [19] 106 % of control

CC(C)(C)CC(C)(C)c1ccc(O)cc1O
inactive: [20] 105 % of control | [21] 103 % of control | [6] 101 % of control | [15] 94 % of control

CCOC(=O)/C=C\C1=CCCC1
inactive: [19] 102 % of control | [22] 98 % of control | endpoint: mean survival time, dose: 200.0 mg/kg/injection, schedule: Q01DX009 (ip), vehicle: saline 102 % of control

NC(C=O)C(O)C(O)C(O)CO (configuration not stated)
inactive: [9] 97 % of control | [10] 97 % of control | [11] 97 % of control

COc1cccc(OC)c1C1=CCCCCC1
inactive: [6] 96 % of control | [15] 101 % of control | [7] 98 % of control | [16] 97 % of control | [8] 93 % of control | [17] 104 % of control

CC(C)=NC(=O)NO.[Cl][Co][Cl]
inactive: [2] 109 % of control | endpoint: mean survival time, dose: 75.0 mg/kg/injection, schedule: Q04DX003 (ip), vehicle: saline 113 % of control | [3] 100 % of control | endpoint: mean survival time, dose: 125.0 mg/kg/injection, schedule: Q04DX003 (ip), vehicle: saline 113 % of control

CC(C)C1CCC(C)C23CCC(=O)C2C13 (configuration not stated)
inactive: endpoint: mean survival time, dose: 100.0 mg/kg/injection, schedule: Q01DX001 (ip), vehicle: acetone 100 % of control | endpoint: mean survival time, dose: 200.0 mg/kg/injection, schedule: Q01DX001 (ip), vehicle: acetone 95 % of control | endpoint: mean survival time, dose: 400.0 mg/kg/injection, schedule: Q01DX001 (ip), vehicle: acetone 110 % of control

CCN(C(=O)Nc1cccc(Cl)c1)c1ccccc1C
inactive: [15] 91 % of control | [16] 97 % of control | [17] 97 % of control

CCOC(=O)CCOc1ccccc1N(CCCl)CCCl
inactive: [15] 87 % of control

CCCCCCOC(CN(C)C)C(Cl)(Cl)Cl (configuration not stated)
inactive: endpoint: mean survival time, dose: 12.5 mg/kg/injection, schedule: Q01DX009 (ip), vehicle: saline with Tween-80 96 % of control and 103 % of control | [20] 96 % of control and 100 % of control | [21] 97 % of control and 100 % of control | [15] 96 % of control and 101 % of control | [16] 102 % of control and 105 % of control | [17] 105 % of control

O=C1NC(=O)C2(CCc3ccccc32)N1 (configuration not stated)
inactive: [12] 110 % of control | [13] 98 % of control | [14] 96 % of control

C/C(=N\NC(N)=S)c1c(O)cc(C)[nH]c1=O
inactive: [1] 97 % of control | endpoint: mean survival time, dose: 200.0 mg/kg/injection, schedule: Q01DX001 (ip), vehicle: saline 101 % of control | endpoint: mean survival time, dose: 400.0 mg/kg/injection, schedule: Q01DX001 (ip), vehicle: saline 98 % of control

C[N+](C)(C)c1ncnc2nc[nH]c12
inactive: endpoint: mean survival time, dose: 12.5 mg/kg/injection, schedule: Q01DX009 (ip), vehicle: saline 98 % of control and 108 % of control | [18] 106 % of control and 108 % of control | [19] 97 % of control and 112 % of control | [22] 120 % of control and 121 % of control

Nc1cc(NCc2ccco2)ncn1
inactive: endpoint: mean survival time, dose: 37.5 mg/kg/injection, schedule: Q01DX009 (ip), vehicle: Klucel (hydroxypropylcellulose) (HPC) 107 % of control | endpoint: mean survival time, dose: 75.0 mg/kg/injection, schedule: Q01DX009 (ip), vehicle: Klucel (hydroxypropylcellulose) (HPC) 97 % of control and 104 % of control
